Source: patent US9557338B2 (SIGNAL PHARMACEUTICALS, LLC, priority 2012, dated 2017)
pIC50: −log10 of the molar value. Like-named read-outs stand apart in the source and are kept apart here.

Key:
Format in all cases: cell-based
GSK-3β = experiment: MSD assay, GSK-3β phosphorylation in cell lysates
Phospho-p70S6K (T389) = experiment: MSD assay, phospho-p70S6K (T389) in cell lysates
Method: Determination of Phospho-p70S6K (T389) in Cell Lysates.
MSD® biomarker detection assays provide a rapid and convenient method for measuring the total and phosphorylated levels of protein targets within a single small-volume sample. In the assay, an antibody for a specific protein target is coated on one electrode (or spot) per well. The samples (cell lysates) are added to the well with a solution containing the detection antibody labeled with an electrochemiluminescent (ECL) compound, MSD SULFOTAG™ label, over the course of one or more incubation periods. The total protein present in the sample binds to the capture antibodies immobilized on the working electrode surface; recruitment of the labeled detection antibody by bound phospho-p70S6K completes the sandwich. MSD Read Buffer that provides the appropriate chemical environment for ECL is added and the plate is read using an MSD SECTOR™ Imager. Inside the SECTOR Imager, a voltage is applied to the plate electrodes which cause the labels bound to the electrode surface to emit light. The instrument measures intensity of the emitted light to afford a quantitative measure of the amount of phosphorylated protein present in the sample.
Cells were plated in 96-well flat bottom plates at the required density determined for each cell line and the cells were allowed to equilibrate at 37° C., 5% CO2 overnight. The following day, the cells were treated with Compound 1 over a range of concentrations for one hour in 5% CO2 at 37° C. After the incubation period, the culture medium was removed carefully with an aspirator. The plate was placed on ice and 50 μL of 1× Tris Lysis Buffer were added to each well. The plate was placed on a shaker at 4° C. for one hour to lyse the cells. At that point, the plate was either frozen at −80° C. for later analysis or immediately assayed for phosphoproteins as described below. To monitor interassay variability, Compound 1 was compared among all plates as a reference standard.
The assay plate was incubated with 150 μL of MSD Blocking Buffer for one hour with shaking at room temperature. The plates were washed 3 times with Tris Wash Buffer. Then 35 μL of cell lysate was added to the wells and incubated for one hour with shaking at room temperature. The solution was removed from the wells and the plate was washed 3 times with wash buffer. Twenty-five microliters of the appropriate antibody solution was then incubated for one hour with shaking at room temperature. The solution was removed from the wells and the plate was washed 3 times with wash buffer. Then 150 μL of 1×MSD Read Buffer T was added to each well. The plate was read on the SECTOR Imager plate reader.

p70S6K = experiment: Luminex multiplex assay, p70S6K phosphorylation in cell lysates; settings: PC3 cell line; read-out: Luminex p70S6K
Excerpt: (§1) The multiplex Luminex assay format differs from conventional enzyme-linked immunosorbent assay (ELISA) in that the multiplex capture antibody is attached to a polystyrene bead whereas the ELISA capture antibody is attached to the microplate well. The use of the suspension bead-based technology enables the multiplexing capabilities of the Luminex assays. The xMAP® technology uses 5.6 micron polystyrene microspheres, which are internally dyed with red and infrared fluorophores of differing intensities. Each bead is given a unique number, or bead region, allowing differentiation of one bead from another. Beads covalently bound to different specific antibodies can be mixed in the same assay, utilizing a 96-well microplate format. At the completion of the sandwich immunoassay, beads can be read, using the Luminex 100™ or Luminex 200 detection system, in single-file by dual lasers for classification and quantification of each analyte. The Akt-Pathway Phospho 5-plex kit used was custom made and includes the ability to simultaneously measure p-GSK3β (S9), p-PRAS40(T246), and p-4E-BP1(T46).
(§2) Cells were plated at the required density. The cells were treated with either Compound 1 or rapamycin over a range of concentrations for 1 hour in 5% CO2 at 37° C. Compound 1 and rapamycin were used at the same concentrations as for the proliferation assay. As for the cell proliferation assay, a reference standard was included in the assay for PC3 cells and the coefficient of variation for assay of p-GSK3β(S9) was 37.8% (n=30), p-PRAS40(T246) was 27.8% (n=30) and for p4E-BP1(T46) was 13.5% (n=4). For three cell lines (HCT-116, MDA-MB-231 and HT29) in the assay for phosphorylation of GSK3β, PRAS40 and 4E-BP1, IGF-I stimulation (500 ng/mL, recombinant human IGF-I) for the last 10 min of incubation was used. The media was aspirated from the wells and the plate was placed on ice. Then 35 μL of Lysis Buffer was added to each well and incubated on ice for at least 30 minutes. During the incubation, the standard curve for each phosphoprotein was prepared. The standards provided were reconstituted and serial dilutions were prepared according to the manufacturer's instructions. At the end of the cell lysis step, […] of the lysate was transferred to a V-bottom plate and spun at 4° C. at 2000 rpm for 5 minutes. Both the 1× Luminex bead and 1× detector antibody solutions were prepared during this time. The 1× bead solution was vortexed and 25 μL was added into each well of a black round bottom plate. Then 50 μL of the 1× detector antibody was added to each well. Fifty microliters (50 μL) of the prepared standards were added to the designated wells. Then 25 μL of the assay diluent was added to each well designated for the compound-treated cell lysates. At the end of the spin, 25 μL of cell lysate was added to the corresponding wells of the black assay plate. The assay plate was covered with the white plate lid and incubated for 3 hours at room temperature on an orbital shaker.
(§3) Approximately 10-15 minutes prior to the end of the first incubation, the secondary antibody solution was prepared according to the vendor's protocol. Goat anti-rabbit R-phycoerythrin red fluorescent protein (RPE) supplied as a 10× concentrate was diluted to generate a 1× goat anti-rabbit RPE stock. The 96-well filter plate was pre-wet with 200 μL of 1× Working wash solution. At the end of the 3 hour incubation, a multichannel pipette was used to transfer the entire contents from each assay well into the wells of the filter plate. The liquid from the wells was removed by aspiration with the vacuum manifold. Then 200 μL of 1× Working wash solution was added into each well. The wash solution was aspirated using the vacuum manifold after 15-30 seconds. This wash step was repeated one time. The bottom of the plate was blotted on clean paper towels to remove residual liquid. […]

Phospho-PRAS40(T246) = experiment: Luminex multiplex assay, Phospho-PRAS40(T246); settings: PC3 cell line; read-out: Luminex PRAS40
Excerpt: (§4) Determination of Phospho-GSK3β(S9), Phospho-PRAS40(T246) and Phospho-4E-BP1(T46) and the Effect of Compound 1 or Rapamycin.
as §1, §2, §3

Phospho-GSK3β(S9) = experiment: Luminex multiplex assay, Phospho-GSK3β(S9); settings: PC3 cell line; read-out: Luminex GSK-3β
Excerpt: as §4, §1, §2, §3

| Structure (SMILES) | pIC50 (p70S6K) | pIC50 (Phospho-PRAS40(T246)) | pIC50 (Phospho-GSK3β(S9)) | also measured |
| --- | --- | --- | --- | --- |
| CO[C@H]1CC[C@H](N2C(=O)CNc3ncc(-c4ccc(-c5nnc[nH]5)nc4C)nc32)CC1 [A-11, 1-((1r,4r)-4-methoxycyclohexyl)-7-(2-methyl-6-(4H-1,2,4-triazol-3-yl)pyridin-3-yl)-3,4-dihydropyrazino[2,3-b]pyrazin-2(1H)-one] |  |  |  | pIC50 (GSK-3β; HCT116 cell line, IGF, read-out: MSD GSK-3β (IGF)): 6.69; pIC50 (GSK-3β; U87MG cell line, read-out: MSD GSK-3β): 6.32; pIC50 (Phospho-p70S6K (T389); HCT116 cell line, IGF, read-out: MSD p70S6K (IGF)): 6.80; pIC50 (Phospho-p70S6K (T389); U87MG cell line, read-out: MSD p70S6K): 7.03 |
| CCN1C(=O)CNc2ncc(-c3ccc(-c4nnc[nH]4)nc3C)nc21 [A-12, 1-ethyl-7-(2-methyl-6-(4H-1,2,4-triazol-3-yl)pyridin-3-yl)-3,4-dihydropyrazino[2,3-b]pyrazin-2(1H)-one] |  |  |  | pIC50 (GSK-3β; Homo sapiens, HCT-116, HCT116 cell line, IGF, read-out: MSD GSK-3β (IGF)): < 5.70; pIC50 (GSK-3β; Homo sapiens, U-87 MG, U87MG cell line, read-out: MSD GSK-3β): < 5.70; pIC50 (Phospho-p70S6K (T389); Homo sapiens, HCT-116, HCT116 cell line, IGF, read-out: MSD p70S6K (IGF)): 6.07; pIC50 (Phospho-p70S6K (T389); Homo sapiens, U-87 MG, U87MG cell line, read-out: MSD p70S6K): 6.60 |
| N#Cc1cccc(-c2cnc3c(n2)N(CCC2CCOCC2)CC(=O)N3)c1 [C-83] | < 5.82 | < 5.82 | < 5.82 |  |
| NC(=O)c1cccc(-c2cnc3c(n2)N(CCC2CCOCC2)CC(=O)N3)c1 [C-84] | < 5.82 | < 5.82 | < 5.82 |  |
| CC(C)(O)c1ccc(-c2cnc3c(n2)N(Cc2cccc(C#N)c2)C(=O)CN3)cn1 [C-85] | 7.57 | 6.86 | 7.52 |  |
| COCCN1CC(=O)Nc2ncc(-c3cnc(C(N)=O)cc3C)nc21 [C-86] | 6.51 | < 5.82 | 6.03 |  |
| O=C1CN(CCC2CCOCC2)c2nc(-c3cccc(-c4ncn[nH]4)c3)cnc2N1 [C-87] | 6.04 | < 5.82 | < 5.82 |  |
| COCCN1CC(=O)Nc2ncc(-c3cnc(-c4ncn[nH]4)cc3C)nc21 [C-88] | 8.52 | 7.64 | 8.10 |  |
| COC1CCC(CN2C(=O)CNc3ncc(-c4cnc(C(N)=O)cc4C)nc32)CC1 (centres unmarked) [C-89] | 6.99 | 5.99 | 6.07 |  |
| NC(=O)c1cccc(-c2cnc3c(n2)N(CCC2CCOCC2)C(=O)CN3)c1 [C-90] | 5.88 | < 5.82 | < 5.82 |  |
| COC1CCC(CN2C(=O)CNc3ncc(-c4cnc(-c5nc[nH]n5)cc4C)nc32)CC1 (centres unmarked) [C-91] | 8.70 | 8.15 | 8.40 |  |
| Cc1nc(-c2nnc[nH]2)ccc1-c1cnc2c(n1)N(Cc1cccc(C#N)c1)C(=O)CN2 [C-92] | 9.00 | 8.05 | 8.10 |  |
| O=C1CNc2ncc(-c3cn[nH]c3)nc2N1CCC1CCOCC1 [C-94] | 6.68 | < 5.82 | < 5.82 |  |
| COC1CCC(CN2C(=O)CNc3ncc(-c4cnc(C(N)=O)cc4C)nc32)CC1 (centres unmarked) [C-95] | 7.54 | 6.51 | 6.63 |  |
| Cc1cc(C(N)=O)ncc1-c1cnc2c(n1)N(CC1CCOCC1)C(=O)CN2 [C-96] | 6.89 | 6.04 | 6.14 |  |
| CCN1C(=O)CNc2ncc(-c3ccc4cn[nH]c4c3)nc21 [C-97] | < 5.82 | < 5.82 | < 5.82 |  |
